B1: rJAM-C: polypeptide obtained by linking the Fc region of human IgG1 to the C-terminus of the extracellular domain (Met 1-Asn 241) of human JAM-C; Sino Biological (protein)
chain: EAVNLKSSNRNPVVHEFESVELSCIITDSQTSDPRIEWKKIQDGQTTYVYFDNKIQGDLAGRTDVFGKTSLRIWNVTRSDSAIYRCEVVALNDRKEVDEITIELIVQVKPVTPVCRIPAAVPVGKTATLQCQESEGYPRPHYSWYRNDVPLPTDSRANPRFQNSSFHVNSETGTLVFNAVHKDDSGQYYCIASNDAGAARCEGQDMEVYDLN

Key:
[1] = test system: stem cell markers Klf4, Nanog, c-Myc, and Sox2 in ADSCs; test: Semi-quantitative RT-PCR of stem cell markers in ADSCs cultured on coated dish; assay type: cell-based, murine
Source text: The result was expressed as a relative value based on the value of mIgG defined as 1. Error bar indicates standard deviation. Asterisk(s) indicate the result of the t-test; where * means P<0.05; ** means P<0.01; and *** means P<0.001.
The result was expressed as a relative value with respect to the value of vehicle defined as 1. Error bar indicates standard deviation in three experiments. Asterisk(s) indicate the result of t-test; where * means P<0.05; ** means P<0.01; and *** means P<0.001.
RNA extraction and RT-PCR were performed using a common method previously described (Sugimoto, et al., PLoS One, 2013, 10: e751062013). […] Semi-quantitative PCR was performed using the GoTaq Green Master Mix Kit (Promega) and primers [Sox2 (5′-[…]-3′ (SEQ ID NO: 23), and 5′-[…]-3′ (SEQ ID NO: 24)); c-Myc (5′-[…]-3′ (SEQ ID NO: 25), and 5′-[…]-3′ (SEQ ID NO: 26)); Nanog (5′-[…]-3′ (SEQ ID NO: 27), and 5′-[…]-3′ (SEQ ID NO: 28)); Klf4 (5′-[…]-3′ (SEQ ID NO: 29), and 5′-[…]-3′ (SEQ ID NO: 30)); and Gapdh (5′-[…]-3′ (SEQ ID NO: 31), and 5′-[…]-3′ (SEQ ID NO: 32))] to amplify the target sequences. […] Then the brightness in a region corresponding to the molecular weight of interest was quantified using the ImageJ (National Institute of Health (NIH)) and statistically analyzed.

[2] = test system: ADSCs (adipose-derived stem cells); test: Cell proliferation assay, BrdU-positive divided by DAPI-positive cells; assay type: cell-based, murine
Protocol: The result was expressed as a relative value based on the value of mIgG defined as 1. Error bar indicates standard deviation. Asterisk(s) indicate the result of t-test; where * means P<0.05; ** means P<0.01; and *** means P<0.001.
The results are shown relative to the total cell number defined as 1. P-value was calculated by a chi-square test (n=353, n=501).
Cells (4×10^4 cells) were inoculated in a 6-well culture dish, and, 24 hours later, treated with 5-bromo-2′-deoxyuridine (BrdU; #B-5002, Sigma-Aldrich) at the final concentration of 10 μM for 2 hours, and then fixed with 4% PFA. Then, the sample was stained according to the method recommended by the manufacturer, and imaged with a fluorescent phase-contrast microscope (OLYMPUS IX71, Olympus Corporation) and a DP Controller. The number of BrdU-positive particles was divided by that of DAPI-positive ones to obtain a proliferated cell number.

[3] = test system: F9 cells expressing JAM-B and JAM-C; test: Cell adhesion assay, crystal violet staining of adhered F9 cells; assay type: cell-based; details: coating at 286 ng/cm^2 in 96-well dish; 30 min after adding cells; relative to vehicle defined as 1
Protocol: JAM-C D1 (286 ng/cm^2) was added to a 96-well plastic culture dish, then F9 stem cells were added thereto, and after 30 min the number of adhered cells was measured with crystal violet staining, while performing no coating as a negative control, and using type I collagen (1,430 ng/cm^2) and rJAM-C (1,430 ng/cm^2) as positive controls. The cell number was expressed as a relative value based on the value of the vehicle defined as 1. Error bar indicates standard deviation. Asterisk(s) indicate the result of the t-test; where * means P<0.05; and *** means P<0.001.
(§1) For each of recombinant soluble JAM-C (polypeptide obtained by linking the Fc region of human IgG1 to the C-terminus of the extracellular domain (Met 1-Asn 241) of human JAM-C; Sino Biological) and murine IgG (GE Healthcare), 20, 100, or 500 ng volume thereof was diluted in 50 μL PBS and disposed into a 96-well round-bottom plate, which was then left standing at 30° C. for 12 hours. As a positive control, 500 ng of collagen Cellmatrix type I-A (Nitta Gelatin Inc.) was processed in the same manner. […]
After washing twice with PBS, ADSCs were detached using a 0.25% trypsin/1 mM EDTA solution and inoculated to the above plate and cultured in a CO2 incubator at 37° C. for 30 min. […] Finally, 50 μL of 5% SDS was used for lysis, and the absorbance was measured at 560 nm wavelength. […]

[4] = test system: ADSCs (adipose-derived stem cells); test: Cell adhesion assay, crystal violet staining of adhered ADSCs; assay type: cell-based; details: coating at 20, 100, and 500 ng per well in 96-well plate; 30 min after adding cells; versus murine IgG control
Protocol: The rJAM-C, or murine IgG (mIgG) as a negative control (both in 20, 100, and 500 ng (57, 286, and 1,430 ng/cm^2, respectively)), and type I collagen (500 ng) as a positive control were added to a 96-well plastic culture dish, and then ADSCs were added. After 30 min, the number of adhered cells was measured by crystal violet staining, and the relative absorbance was measured. The absorbance was expressed by a relative absorbance based on the result of the vehicle defined as 1. Error bar indicates standard deviation. Asterisk(s) indicate the result of t-test; where * means P<0.05; and *** means P<0.001.
as §1
After washing twice with PBS, ADSCs were detached using a 0.25% trypsin/1 mM EDTA solution and inoculated to the above plate and cultured in a CO2 incubator at 37° C. for 30 min. […] Finally, 50 μL of 5% SDS was used for lysis, and the absorbance was measured at 560 nm wavelength.

| Molecule | expression of stem cell markers Nanog, Klf4, Sox2, and c-Myc ([1]; ADSCs in 6-well dish coated at 52 ng/cm^2, relative to vehicle defined as 1) | proliferation ability (BrdU-positive / DAPI-positive cells) ([2]; ADSCs in 6-well dish coated at 52 ng/cm^2, chi-square test) | adhesion of F9 cells (adhered cell number) [3] | adhesion of ADSCs (adherent cell number, relative absorbance) [4] | expression of stem cell markers Klf4, Nanog, c-Myc, and Sox2 ([1]; ADSCs in 12-well dish coated at 132 ng/cm^2, cultured 48 hours, relative to mIgG defined as 1) | proliferation ability (BrdU-positive / DAPI-positive cells) ([2]; ADSCs in 6-well dish coated at 104 ng/cm^2, relative to mIgG defined as 1) |
| --- | --- | --- | --- | --- | --- | --- |
| DPRIEWKKI [JAM-C D1] | significantly increased | significantly increased | significantly increased |  |  |  |
| B1 |  |  |  | significantly increased | significantly increased | about 2 fold |

— patent publication US20210269478A1, “ADJUVANT FOR CELL CULTURE” (FUKUSHIMA MEDICAL UNIVERSITY, priority 2018, published 2021)
